Legend:
[1] = tested on: anti-rhGAA antibody titers; assay: Adoptive transfer of splenic B cells from tolerized mice; type: in vivo, C57BL/6 mice; details: donors treated with Myozyme and a single cycle of methotrexate
Experimental: C57BL/6 mice were obtained from Jackson Laboratories and were housed under specific pathogen free conditions. Control mice were given a single intravenous injection of rhGAA at 20 mg/kg. Tolerized mice were given a single intravenous injection of rhGAA at 20 mg/kg, in addition to three daily consecutive methotrexate intraperitoneal injections of 0.5 mg. Spleens were harvested on day six after the initial rhGAA injection, from both donor groups, and processed into pooled single cell suspensions. Cells were washed and filtered through a […]. Cells were then enriched for B cells using a StemCell Technologies RoboSep cell separation system, and resuspended to allow for a 200 μl intravenous injection. Tolerized and non-tolerized recipient groups received either a high cell 10×10^6 or a low cell 5×10^6 concentration via intravenous injections. Control groups were given rhGAA only, or rhGAA and methotrexate (single cycle of three consecutive daily MTX injections). All groups received weekly intravenous rhGAA 20 mg/kg injections, and were retro-orbitally bled biweekly for 16 weeks, into BD Vacutainer serum separator tubes. Serum was removed and stored below −20° C. until used for ELISA. Anti-rhGAA antibody titers were determined using ELISA, read on a SpectraMax M2, and calculated using Softmax to extrapolate titer value. […]

[2] = tested on: circulating and splenic T cells and B cells; assay: Flow cytometry of alemtuzumab-mediated lymphocyte depletion in blood and spleen; type: in vivo, huCD52 Tg mice
Experimental: For splenocyte and lymph node cell preparations single-cell suspensions were generated from harvested mouse spleens or inguinal and mesenteric lymph nodes by homogenization between frosted glass slides into PBS containing 2% FCS. For splenocyte preparations, red blood cells were lysed by 1-2 minute incubation with a red blood cell lysis solution (BD Biosciences, San Diego, Calif.). Blood was isolated by retro-orbital bleeding and cell preparations were performed by lysing red blood cells with red blood cell lysing solution (BD Biosciences) for 20-30 minutes. For all tissue preparations, live cells were enumerated using the ViCell automated counter (Beckman Coulter, Fullerton, Calif.). Following isolation, all cell preparations were washed with PBS/2% FCS prior to use in the assays described below.
For evaluation of cell populations within different tissues, single cell suspensions of the tissues were incubated with fluorochrome-conjugated antibodies that included anti-mouse CD4, CD8, CD25, CD44, CD62L (all antibodies from BD Biosciences or eBioscience, San Diego, Calif.). Intracellular Foxp3 expression analysis was performed according to the anti-Foxp3 manufacturer's protocol (eBiosciences, San Diego, Calif.). Following incubation with the antibodies, cells were washed and analyzed by flow cytometry (FACSCanto, BD Biosciences and FCS Express software, De Novo Software, Los Angeles, Calif.).

[3] = tested on: splenic B and T cell subsets; assay: Flow cytometry of splenic B and T cell subsets after rhGAA and methotrexate; type: in vivo, mice
Experimental: 20 mg/kg of Myozyme® (Genzyme Corporation) was given by tail vein injection once or for 2-6 weekly doses, commencing with the first methotrexate dose. Animals were sacrificed weekly or daily after initiation of treatment. Spleen, mesenteric, and inguinal lymph nodes were collected for flow cytometric analysis of T and B cell subsets and sera was collected for ELISA assays. Spleens were processed between glass slides and red blood cells (RBC) was lysed with lysing buffer purchased from BD Biosciences (catalog#555899) according to the manufacturer's instructions. Lymph nodes were processed between glass slides and washed with phosphate buffered saline (PBS) containing 2% fetal calf serum (FCS). Cells were resuspended in 200 μL of PBS containing 4% fetal bovine serum and 25 μg/mL of total mouse IgG and blocked for 30 minutes at 4° C. Approximately 3 million spleens cells and 1 million lymph node cells were stained with different antibody cocktails and analyzed with a high through put sampler (HTS) on a Becton Dickinson CANTOII flow cytometer. At least 100,000 cell events were acquired within the lymphocyte gate. Anti-mouse antibody cocktails consisted of PE-CD21/35 catalog #552957, FITC-catalog #553138, PE-CD138 catalog #553714, PE-PE-Cy7-CD4 catalog #552775, FITC-CD3e catalog #553062, APC-CD11b catalog #553312, PE-Cy7-IgM catalog #552867, APC-Cy7-CD8 catalog #557654, PE-CD273 (PD-L2) catalog #557796, APC-CD138 catalog #558626, PE-Cy7-CD11b catalog #552850, PE-CD93 (early B lineage) catalog #558039, APC-CD69 catalog #560689, Pe-Cy7-CD24 catalog #560536, FITC-CD1d catalog #553845, APC-CD5 catalog #550035, and Percp-Cy5-7AAD catalog #559925, all purchased from BD Pharmingen. FITC-FoxP3 intracellular staining kit was purchased from eBioscience. Pacific Blue (PB)-CD25 catalog #102022, PB-CD23 catalog #101616 and PB-CD86 catalog #105022 were purchased from BioLegend. Analysis of lymphocyte subsets was performed with FCS express version 3 software provided by De Novo Software. Percentages were generated with the batch processing option and absolute numbers were calculated according to the cell counts obtained. Spleen and lymph node cell counts were obtained with a Beckman Coulter Vi-cell XR cell viability analyzer according to the manufacturer's instructions.
C57BL/6 (Jackson Laboratories) or E4GAAKO (Charles River) mice 8-12 weeks old were given 5 mg/kg of methotrexate (Calbiochem catalog #454125) by intraperitoneal injection for 1 cycle (3 consecutive daily doses) commencing with treatment with 20 mg/kg of rhGAA. For the 1D11 studies, animals were treated with intraperitoneal injections of 5 mg/kg of either 1D11 or 13C4 (Genzyme Corporation) 3 time per week, every other day, commencing with rhGAA and methotrexate treatment. Animals were sacrificed on day 6 or 7 post rhGAA initiation depending on the mouse strain. Spleens were prepared in single cell suspension and loaded onto the RoboSep (STEMCELL technologies) instrument according to the manufacturer's instructions and subjected to B cell negative selection. Purified B cells were seeded at 500,000 cells per well in 96 well round bottom plates (Costar catalog #3799) and either incubated with no stimulation or with 10 μg/mL of LPS (Sigma catalog #L5014) for 48 hours at 37° C. All wells received Monensin (BD Bioscience catalog #554724) according to the manufacturer's instructions. Cells were allowed to incubate for at least 4 hours at 37° C. Samples were transferred to V bottom wells (USA Scientific catalog #651201) and spun at 1200 rpm for 5 minutes at 4° C. Cells were resuspended in 200 μL of PBS containing 4% fetal bovine serum and 25 μg/ml of total mouse IgG and blocked for 30 minutes at 4° C.

[4] = Myozyme and methotrexate vs Myozyme alone

## CN(Cc1cnc2nc(N)nc(N)c2n1)c1ccc(C(=O)N[C@@H](CCC(=O)O)C(=O)O)cc1 [methotrexate, Methotrexate]
[1]
  transfer of immune tolerance to Myozyme in naive hosts by total splenic B cells: could transfer immune tolerance
[2]; alemtuzumab alone, or with methotrexate 5 mg/kg daily for first three days
  depletion of circulating T cells by fifth monthly dose of alemtuzumab: restored the ability of alemtuzumab to deplete T cells
[2]; methotrexate-treated animals, one day following fifth alemtuzumab treatment
  splenic T cell populations: significantly depleted
[2]; mice treated with alemtuzumab and methotrexate, after fifth alemtuzumab dose
  splenic B cell populations, except follicular B cells: not significantly depleted
[2]; spleen, two days following last day of methotrexate treatment
  effect on marginal zone B cells with alemtuzumab: may enhance the depletion of marginal zone B cells
[2]; with methotrexate 5 mg/kg daily for first three days
  depletion of circulating B cells by fifth monthly dose of alemtuzumab: enhance the depletion of B cells
[3]; [4]
  IL-10, TGFbeta and FoxP3 mean fluorescence intensity in multiple cell subsets: statistically significant increases
  number of B10 B cells expressing IL-10: increased
[3]; following methotrexate treatment with rhGAA
  activated B cell subsets (marginal zone, follicular, transitional 2 and 3): significantly increased
[3]; methotrexate and Myozyme
  numbers of FoxP3+ B cells: increase
[3]; methotrexate vs Myozyme alone
  absolute cell numbers of IL-10, TGF-beta and FoxP3 expressing transitional 2, transitional 3 and follicular B cells: increased
[3]; methotrexate-tolerized animals
  numbers of TGF-beta-expressing B10 B cells: increased
[3]; seven and eight days following Myozyme treatment
  B10 regulatory B cell population: significant increases
[3]; two cycles of Myozyme and methotrexate
  activated T helper, T cytotoxic and T regulatory cell populations: largely unchanged

— patent US11672802B2, “Induction of immune tolerance by using methotrexate” (Genzyme Corporation, priority 2011, dated 2023)
